Numbers after ± are expanded uncertainties.
Experiment: mn = molality of the nth substance listed, in mol/kg
Conditions: Liquid

O=[N+]([O-])[O-].[Li+] [lithium nitrate] + CO
mass density (348.25 K, 312 kPa, m1 = 3.614): 887.13 ± 0.16 kg/m3
mass density (348.25 K, 318 kPa, m1 = 1.803): 819.91 ± 0.22 kg/m3
mass density (348.25 K, 325 kPa, m1 = 0.5393): 764.85 ± 0.26 kg/m3
mass density (348.25 K, 4991 kPa, m1 = 0.5393): 770.52 ± 0.34 kg/m3
mass density (348.25 K, 5006 kPa, m1 = 3.614): 891.37 ± 0.2 kg/m3
mass density (348.25 K, 5009 kPa, m1 = 1.803): 824.85 ± 0.27 kg/m3
mass density (348.25 K, 9982 kPa, m1 = 3.614): 895.64 ± 0.23 kg/m3
mass density (348.25 K, 10005 kPa, m1 = 1.803): 829.8 ± 0.33 kg/m3
mass density (348.25 K, 10014 kPa, m1 = 0.5393): 776.21 ± 0.42 kg/m3
mass density (348.25 K, 14983 kPa, m1 = 1.803): 834.47 ± 0.39 kg/m3
mass density (348.25 K, 14987 kPa, m1 = 0.5393): 781.48 ± 0.49 kg/m3
mass density (348.25 K, 15007 kPa, m1 = 3.614): 899.77 ± 0.26 kg/m3
mass density (348.25 K, 19991 kPa, m1 = 1.803): 838.93 ± 0.44 kg/m3
mass density (348.25 K, 19995 kPa, m1 = 3.614): 903.68 ± 0.29 kg/m3
mass density (348.25 K, 20004 kPa, m1 = 0.5393): 786.51 ± 0.56 kg/m3
mass density (348.25 K, 24984 kPa, m1 = 1.803): 843.17 ± 0.49 kg/m3
mass density (348.25 K, 24990 kPa, m1 = 3.614): 907.45 ± 0.32 kg/m3
mass density (348.25 K, 25002 kPa, m1 = 0.5393): 791.23 ± 0.63 kg/m3
mass density (348.25 K, 29989 kPa, m1 = 0.5393): 795.72 ± 0.7 kg/m3
mass density (348.25 K, 29996 kPa, m1 = 3.614): 911.08 ± 0.35 kg/m3
mass density (348.25 K, 30007 kPa, m1 = 1.803): 847.26 ± 0.54 kg/m3
mass density (348.25 K, 34987 kPa, m1 = 0.5393): 800.01 ± 0.77 kg/m3
mass density (348.25 K, 34994 kPa, m1 = 3.614): 914.59 ± 0.37 kg/m3
mass density (348.25 K, 34996 kPa, m1 = 1.803): 851.13 ± 0.59 kg/m3
mass density (348.25 K, 39988 kPa, m1 = 0.5393): 804.12 ± 0.83 kg/m3
mass density (348.25 K, 39995 kPa, m1 = 1.803): 854.88 ± 0.63 kg/m3
mass density (348.25 K, 40008 kPa, m1 = 3.614): 917.97 ± 0.39 kg/m3
mass density (373.15 K, 572 kPa, m1 = 0.1551): 719.83 ± 0.31 kg/m3
mass density (373.15 K, 578 kPa, m1 = 0.8904): 757.09 ± 0.27 kg/m3
mass density (373.15 K, 627 kPa, m1 = 0.2943): 727.47 ± 0.3 kg/m3
mass density (373.15 K, 4896 kPa, m1 = 0.1551): 726.23 ± 0.39 kg/m3
mass density (373.15 K, 4896 kPa, m1 = 0.8904): 762.68 ± 0.35 kg/m3
mass density (373.15 K, 5038 kPa, m1 = 0.2943): 733.83 ± 0.38 kg/m3
mass density (373.15 K, 10365 kPa, m1 = 0.2943): 741.1 ± 0.48 kg/m3
mass density (373.15 K, 10738 kPa, m1 = 0.1551): 734.38 ± 0.5 kg/m3
mass density (373.15 K, 10738 kPa, m1 = 0.8904): 769.86 ± 0.44 kg/m3
mass density (373.15 K, 15238 kPa, m1 = 0.1551): 740.28 ± 0.58 kg/m3
mass density (373.15 K, 15238 kPa, m1 = 0.8904): 775.11 ± 0.51 kg/m3
mass density (373.15 K, 15875 kPa, m1 = 0.2943): 748.15 ± 0.57 kg/m3
mass density (373.15 K, 20369 kPa, m1 = 0.2943): 753.53 ± 0.65 kg/m3
mass density (373.15 K, 21035 kPa, m1 = 0.1551): 747.38 ± 0.68 kg/m3
mass density (373.15 K, 21035 kPa, m1 = 0.8904): 781.49 ± 0.59 kg/m3
mass density (373.15 K, 25124 kPa, m1 = 0.1551): 752.05 ± 0.74 kg/m3
mass density (373.15 K, 25124 kPa, m1 = 0.8904): 785.73 ± 0.65 kg/m3
mass density (373.15 K, 25852 kPa, m1 = 0.2943): 759.66 ± 0.74 kg/m3
mass density (373.15 K, 30147 kPa, m1 = 0.2943): 764.13 ± 0.8 kg/m3
mass density (373.15 K, 30418 kPa, m1 = 0.1551): 757.68 ± 0.83 kg/m3
mass density (373.15 K, 30418 kPa, m1 = 0.8904): 790.91 ± 0.72 kg/m3
mass density (373.15 K, 35753 kPa, m1 = 0.2943): 769.52 ± 0.89 kg/m3
mass density (373.15 K, 35984 kPa, m1 = 0.1551): 763.11 ± 0.92 kg/m3
mass density (373.15 K, 35984 kPa, m1 = 0.8904): 795.98 ± 0.8 kg/m3
mass density (373.15 K, 39901 kPa, m1 = 0.1551): 766.61 ± 0.97 kg/m3
mass density (373.15 K, 39901 kPa, m1 = 0.8904): 799.31 ± 0.85 kg/m3
mass density (373.15 K, 39951 kPa, m1 = 0.2943): 773.22 ± 0.95 kg/m3
mass density (373.27 K, 528 kPa, m1 = 3.614): 865.29 ± 0.19 kg/m3
mass density (373.27 K, 532 kPa, m1 = 1.803): 796.7 ± 0.24 kg/m3
mass density (373.27 K, 4988 kPa, m1 = 1.803): 802.12 ± 0.3 kg/m3
mass density (373.27 K, 5015 kPa, m1 = 3.614): 869.9 ± 0.23 kg/m3
mass density (373.27 K, 9996 kPa, m1 = 1.803): 807.82 ± 0.37 kg/m3
mass density (373.27 K, 10010 kPa, m1 = 3.614): 874.76 ± 0.27 kg/m3
mass density (373.27 K, 14985 kPa, m1 = 1.803): 813.14 ± 0.43 kg/m3
mass density (373.27 K, 14994 kPa, m1 = 3.614): 879.35 ± 0.31 kg/m3
mass density (373.27 K, 19990 kPa, m1 = 1.803): 818.17 ± 0.49 kg/m3
mass density (373.27 K, 19991 kPa, m1 = 3.614): 883.74 ± 0.34 kg/m3
mass density (373.27 K, 24989 kPa, m1 = 1.803): 822.92 ± 0.55 kg/m3
mass density (373.27 K, 24995 kPa, m1 = 3.614): 887.93 ± 0.38 kg/m3
mass density (373.27 K, 29999 kPa, m1 = 3.614): 891.95 ± 0.41 kg/m3

— the NIST ThermoML archive (doi:10.1016/j.jct.2006.01.008)
